Reference: publication PMC11358092, “Caspofungin enhances the potency of rifampin against Gram-negative bacteria” (Frontiers in Microbiology, 2024)
Structures can show the parent of a compound that is named as a salt.

Tested on: E. coli MG1655
Assay: High-throughput screening of FDA-approved drug library for antibiotic adjuvants (growth inhibition, OD600)
Assay type: cell-based, Escherichia coli
Settings: library drug alone, LB medium, 96-well, 8 h static culture at 37°C, relative to PMBN (positive) and DMSO (negative) controls, %, table head prints no unit
Method: To screen for antibiotic adjuvants against GNB, […] library drugs or polymyxin B nonapeptide (PMBN, positive control) or dimethyl sulfoxide (DMSO, negative control). After 8 h of static culture at 37°C, the optical density at 600 nm (OD600) was measured using a microplate reader. Percentage inhibition was calculated as (ODN – ODX)/(ODN – ODP) × 100%, where ODX is the OD600 value for a test treated with drug X, and ODP and ODN are the OD600 values for the positive and negative control, respectively.

Structure (SMILES)	Growth inhibition, Compound
CN(C)CCn1nnnc1SCC1=C(C(=O)O)N2C(=O)[C@@H](NC(=O)Cc3csc(N)n3)[C@H]2SC1 [Cefotiam hydrochloride]	105%
CO[C@@]1(NC(=O)Cc2cccs2)C(=O)N2C(C(=O)O)=C(COC(N)=O)CS[C@@H]21 [Cefoxitin sodium]	78%
Cc1cc(O)c(C(=O)N[C@@H](C(=O)N[C@@H]2C(=O)N3C(C(=O)O)=C(CSc4nnnn4C)CS[C@H]23)c2ccc(O)cc2)cn1 [Cefpiramide acid]	97%
CO/N=C(\C(=O)N[C@@H]1C(=O)N2C(C(=O)O)=C(C[n+]3cccc4c3CCC4)CS[C@H]12)c1csc(N)n1.O=S(=O)([O-])O [Cefpirome sulfate]	93%
COCC1=C(C(=O)O)N2C(=O)[C@@H](NC(=O)/C(=N\OC)c3csc(N)n3)[C@H]2SC1 [Cefpodoxime (free acid)]	108%
CCO/N=C(\C(=O)N[C@@H]1C(=O)N2C(C(=O)[O-])=C(Sc3nc(-c4cc[n+](C)cc4)cs3)CS[C@H]12)c1nsc(NP(=O)(O)O)n1 [Ceftaroline fosamil]	93%
CC(C)(O/N=C(\C(=O)N[C@@H]1C(=O)N2C(C(=O)[O-])=C(C[n+]3ccccc3)CS[C@H]12)c1csc(N)n1)C(=O)O [Ceftazidime]	53%
CO/N=C(\C(=O)N[C@@H]1C(=O)N2C(C(=O)OCOC(=O)C(C)(C)C)=C(Cn3nnc(C)n3)CS[C@H]12)c1csc(N)n1 [Cefteram pivoxil]	110%
Nc1nc(/C(=C/CC(=O)O)C(=O)N[C@@H]2C(=O)N3C(C(=O)O)=CCS[C@H]23)cs1.O.O [Ceftibuten dihydrate]	84%
CO/N=C(/C(=O)N[C@@H]1C(=O)N2C(C(=O)O)=C(CSC(=O)c3ccco3)CS[C@H]12)c1csc(N)n1.Cl [Ceftiofur hydrochloride]	84%
CO/N=C(\C(=O)N[C@@H]1C(=O)N2C(C(=O)O)=CCS[C@H]12)c1csc(N)n1 [Ceftizoxime]	101%
Cc1oc(=O)oc1COC(=O)N1CC[C@@H](N2CC/C(=C\C3=C(C(=O)O)N4C(=O)[C@@H](NC(=O)/C(=N/O)c5nsc(N)n5)[C@H]4SC3)C2=O)C1 [Ceftobiprole medocaril]	106%
Nc1nc(/C(=N/O)C(=O)N[C@@H]2C(=O)N3C(C(=O)O)=C(/C=C4\CCN([C@@H]5CCNC5)C4=O)CS[C@H]23)ns1 [Ceftobiprole]	107%
CO/N=C(\C(=O)N[C@@H]1C(=O)N2C(C(=O)O)=C(CSc3nc(=O)c(=O)[nH]n3C)CS[C@H]12)c1csc(N)n1 [Ceftriaxone sodium]	114%
CO/N=C(\C(=O)N[C@@H]1C(=O)N2C(C(=O)O)=C(COC(N)=O)CS[C@H]12)c1ccco1 [Cefuroxime sodium]	95%
CC(=O)OCC1=C(C(=O)O)N2C(=O)[C@@H](NC(=O)Cc3cccs3)[C@H]2SC1 [Cephalothin sodium]	79%
CC(=O)OCC1=C(C(=O)O)N2C(=O)[C@@H](NC(=O)Cc3cccs3)[C@H]2SC1 [Cephalotin acid]	92%
CCCCCCCCCCCCCCCC[N+](C)(C)C [Cetrimonium bromide]	87%
Cc1ccc2c(Cl)cc(Cl)c(O)c2n1 [Chloquinan]	119%
O=C(N[C@H](CO)[C@H](O)c1ccc([N+](=O)[O-])cc1)C(Cl)Cl [Chloramphenicol]	109%
[H]/N=C(\N/C(=N/[H])NCCCCCCNC(=N)NC(=N)Nc1ccc(Cl)cc1)Nc1ccc(Cl)cc1 [Chlorhexidine Acetate]	103%
[H]/N=C(\N/C(=N/[H])NCCCCCCNC(=N)NC(=N)Nc1ccc(Cl)cc1)Nc1ccc(Cl)cc1 [Chlorhexidine hydrochloride]	107%
[H]/N=C(\N/C(=N/[H])NCCCCCCNC(=N)NC(=N)Nc1ccc(Cl)cc1)Nc1ccc(Cl)cc1 [Chlorhexidine]	101%
CN(C)[C@@H]1C(O)=C(C(N)=O)C(=O)[C@@]2(O)C(O)=C3C(=O)c4c(O)ccc(Cl)c4[C@@](C)(O)[C@H]3C[C@@H]12 [Chlortetracycline hydrochloride]	111%
Cc1cc(C2CCCCC2)n(O)c(=O)c1.NCCO [Ciclopirox ethanolamine]	114%
Cc1cc(C2CCCCC2)n(O)c(=O)c1 [Ciclopirox]	70%
CCn1nc(C(=O)O)c(=O)c2cc3c(cc21)OCO3 [Cinoxacin]	88%

Structure (SMILES)	Growth inhibition, Compound
CC[C@H]1OC(=O)[C@H](C)[C@@H](O[C@H]2C[C@@](C)(OC)[C@@H](O)[C@H](C)O2)[C@H](C)[C@@H](O[C@@H]2O[C@H](C)C[C@H](N(C)C)[C@H]2O)[C@](C)(OC)C[C@@H](C)C(=O)[C@H](C)[C@@H](O)[C@]1(C)O [Clarithromycin]	50%
Oc1c(I)cc(Cl)c2cccnc12 [Clioquinol]	94%
CN1C[C@@H]2C[C@H]1CN2c1cc2c(cc1F)c(=O)c(C(=O)O)cn2C1CC1.CS(=O)(=O)O [Danofloxacin mesylate]	100%
CC[C@H]1OC(=O)[C@H](C)[C@@H](O[C@H]2C[C@@](C)(OC)[C@@H](O)[C@H](C)O2)[C@H](C)[C@@H](O[C@@H]2O[C@H](C)C[C@H](N(C)C)[C@H]2O)[C@](C)(O)C[C@@H](C)C(=O)[C@H](C)[C@H]2OC(=O)O[C@@]21C [Davercin]	114%
CNC[C@H](O)[C@@H](O)[C@H](O)[C@H](O)CO.Nc1nc(-n2cc(C(=O)O)c(=O)c3cc(F)c(N4CC(O)C4)c(Cl)c32)c(F)cc1F [Delafloxacin meglumine]	103%
Nc1nc(-n2cc(C(=O)O)c(=O)c3cc(F)c(N4CC(O)C4)c(Cl)c32)c(F)cc1F [Delafloxacin]	105%
CN(C)[C@@H]1C(O)=C(C(N)=O)C(=O)[C@@]2(O)C(O)=C3C(=O)c4c(O)ccc(Cl)c4[C@@H](O)[C@H]3C[C@@H]12 [Demeclocycline hydrochloride]	99%
Oc1ccc(Cl)c2cccnc12 [Dermofongin]	85%
COc1ccc(Cc2cnc(N)nc2N)cc1OC [Diaveridine]	107%
Oc1ccc(Cl)cc1Cc1cc(Cl)ccc1O [Dichlorophen]	95%
O=c1[nH]cnc2c1ncn2[C@H]1CC[C@@H](CO)O1 [Didanosine]	41%
CN[C@@H]1[C@H](O[C@H]2[C@H](O[C@H]3[C@H](O)[C@@H](O)[C@H](NC(=N)N)[C@@H](O)[C@@H]3NC(=N)N)O[C@@H](C)[C@]2(O)CO)O[C@@H](CO)[C@H](O)[C@H]1O [Dihydrostreptomycin sulfate]	106%
[O-][n+]1ccccc1SSc1cccc[n+]1[O-] [Dipyrithione]	104%
CCN(CC)C(=S)SSC(=S)N(CC)CC [Disulfiram]	78%
C[C@@H](O)[C@H]1C(=O)N2C(C(=O)O)=C(S[C@@H]3CN[C@H](CNS(N)(=O)=O)C3)[C@H](C)[C@H]12.O [Doripenem Hydrate]	77%
C[C@@H](O)[C@H]1C(=O)N2C(C(=O)O)=C(S[C@@H]3CN[C@H](CNS(N)(=O)=O)C3)[C@H](C)[C@H]12 [Doripenem]	95%
CCO.C[C@H]1c2cccc(O)c2C(O)=C2C(=O)[C@]3(O)C(O)=C(C(N)=O)C(=O)[C@@H](N(C)C)[C@@H]3[C@@H](O)[C@@H]21.C[C@H]1c2cccc(O)c2C(O)=C2C(=O)[C@]3(O)C(O)=C(C(N)=O)C(=O)[C@@H](N(C)C)[C@@H]3[C@@H](O)[C@@H]21.Cl.Cl.O [Doxycycline hyclate]	112%
C[C@H]1c2cccc(O)c2C(=O)C2=C(O)[C@]3(O)C(=O)C(C(N)=O)=C(O)[C@@H](N(C)C)[C@@H]3[C@@H](O)[C@@H]21 [Doxycycline hydrochloride]	114%
C[C@H]1c2cccc(O)c2C(=O)C2=C(O)[C@]3(O)C(=O)C(C(N)=O)=C(O)[C@@H](N(C)C)[C@@H]3[C@@H](O)[C@@H]21 [Doxycycline]	118%
CCn1cc(C(=O)O)c(=O)c2cc(F)c(N3CCNCC3)nc21.CCn1cc(C(=O)O)c(=O)c2cc(F)c(N3CCNCC3)nc21.O.O.O [Enoxacin Sesquihydrate]	110%
CCn1cc(C(=O)O)c(=O)c2cc(F)c(N3CCNCC3)nc21 [Enoxacin]	109%
CCN1CCN(c2cc3c(cc2F)c(=O)c(C(=O)O)cn3C2CC2)CC1 [Enrofloxacin]	95%
C[C@@H](O)[C@H]1C(=O)N2C(C(=O)[O-])=C([C@H]3CCCO3)S[C@H]12.[Na+] [Faropenem sodium]	100%
CCCCCCCCc1ccc(CCC(N)(CO)CO)cc1 [Fingolimod hydrochloride]	87%
CCCCCCCCc1ccc(CCC(N)(CO)CO)cc1 [Fingolimod]	90%
Cc1c(-c2ccccc2)oc2c(C(=O)OCCN3CCCCC3)cccc2c1=O [Flavoxate hydrochloride]	95%
